Laboratory results published in ChEMBL document CHEMBL1142394, “Morphinane alkaloid dimers from Sinomenium acutum” (J Nat Prod, 2008).

Experiments:
HeLa = assay: Cytotoxicity against human HeLa cells by MTT assay; assay type: functional, cell-based
A549 = assay: Cytotoxicity against human A549 cells by MTT assay; assay type: functional, cell-based

Compound | IC50 (HeLa) | IC50 (A549)
COC1=C[C@@H]2[C@@H]3Cc4c(-c5cc(OC)c(O)c6c5C[C@H]5[C@H]7C=C(OC)C(=O)C[C@@]67CCN5C)cc(OC)c(O)c4[C@]2(CCN3C)CC1=O | 70.7 µM | 71.8 µM
COC1=C[C@@H]2[C@@H]3Cc4cc(-c5cc6c(c(O)c5OC)[C@@]57CCN(C)[C@@H](C6)[C@H]5C=C(OC)C(=O)C7)c(OC)c(O)c4[C@]2(CCN3C)CC1=O | 71.7 µM | 65.5 µM
